Where two headings read alike, the source gives them in different places. Bounds are passed on as bounds.

Assay [1] has as its system AGS cells. Nature of the assay: Cell viability, trypan blue exclusion, 24 h. Particulars: mean ± SE, n=3, read-out: IC50, growth of human cancer cells. The format is cell-based. The protocol:
(§1) Cell Culture and Chemicals. The COLO 205 and HT 29 cell lines were isolated from human colon adenocarcinoma (ATCC CCL-222 and HTB-38); human promyelocytic leukemia (HL-60) cells were obtained from American Type Culture Collection (Rockville, Md.). The human AGS gastric carcinoma cell lines (CCRC 60102) were obtained from the Food Industry Research and Development Institute (Hsinchu, Taiwan). Cell lines were grown at 37° C. in 5% CO2 dioxide atmosphere in RPMI for COLO 205, HT-29, and HL-60 cells and DMEM/F12 for AGS cells, all supplemented with 10% heat-inactivated fetal bovine serum (GIBCO BRL, Grand Island, N.Y.) (100 units/mL of penicillin, 100 μg/mL of streptomycin), and 2 mM L-glutamine (GIBCO BRL). Selected compounds were dissolved in dimethyl sulfoxide (DMSO). Propidium iodide was obtained from Sigma Chemical Co. (St. Louis, Mo.).
(§2) Determination of Cell Viability. Human cancer cells were treated either with DMSO (0.01%) or the selected compounds (5-100 μM). Cell viability was determined at 24 h based on trypan blue exclusion assay. The viability percentage was calculated based on the percentage of unstained cells. Suspensions of cells were diluted 1:1 with 0.5% trypan blue solution. Stained and unstained cells were counted in a hemocytometer.

The subject of assay [2] is COLO 205 cells. As to the kind of experiment: Cell viability, trypan blue exclusion, 24 h. It counts as cell-based. As to conditions: COLO 205, 24 h, mean ± SE, n=3, read-out: IC50, growth of human cancer cells. The protocol: as §1, §2
For assay [3], the system named is HL-60 cells. As to the kind of experiment: Cell viability, trypan blue exclusion, 24 h. It counts as cell-based. As to conditions: HL-60, 24 h, mean ± SE, n=3, read-out: IC50, growth of human cancer cells. The procedure: as §1, §2
Assay [4] deals with HT-29 cells. Nature of the assay: Cell viability, trypan blue exclusion, 24 h. The format is cell-based. As to conditions: HT-29, 24 h, mean ± SE, n=3, read-out: IC50, growth of human cancer cells. The procedure: as §1, §2
Assay [5] relates to AGS cells. Nature of the assay: Apoptosis (sub-G1) by flow cytometry. It counts as cell-based, human. Particulars: 24 h, mean ± SE. The protocol:
as §1
(§3) Flow Cytometry. Human cancer cells (2×10^5) were cultured in 60-mm Petri dishes and incubated for 24 h. The apoptotic cells (sub-G1) in the selected compounds and treated cells were measured by flow cytometry analysis. Then cells were harvested, washed with PBS, resuspended in 200 μL of PBS, and fixed in 800 μL of iced 100% ethanol at −20° C. After being left to stand overnight, the cell pellets were collected by centrifugation, resuspended in 1 mL of hypotonic buffer (0.5% Triton X-100 in PBS and 0.5 μg/mL RNase), and incubated at 37° C. for 30 min. Then 1 mL of propidium iodide solution (50 μg/mL) was added and the mixture was allowed to stand on ice for 30 min. Fluorescence emitted from the propidium iodide-DNA complex was quantitated after excitation of the fluorescent dye by FACScan cytometry (Becton Dickinson, San Jose, Calif.).
(§4) The compounds isolated from Inula were tested for their effects on the apoptotic ratio in human cancer cells.

Assay [6] relates to COLO 205 cells. Nature of the assay: Apoptosis (sub-G1) by flow cytometry. It counts as cell-based, human. As to conditions: 24 h, mean ± SE. The procedure: as §1, §3, §4
(In flow cytometry, cells or beads pass a laser one at a time.)

Assay [7] concerns HL-60 cells. As to the kind of experiment: Apoptosis (sub-G1) by flow cytometry. It counts as cell-based, human. Particulars: 24 h, mean ± SE. The procedure: as §1, §3, §4
Assay [8] has as its system HT-29 cells. As to the kind of experiment: Apoptosis (sub-G1) by flow cytometry. It counts as cell-based, human. Particulars: 24 h, mean ± SE. The procedure:
as §1, §3, §4

Turning to `C=C1C(=O)OC2CC(C)=C(C(C)CCCO)C(OC(=O)C(C)CC)C12` (stereo not drawn) [Compound 1, 6β-O-(2-methylbutyryl)-britannilactone], the half-inhibitory concentration (IC50) came to 31.3 ± 1.8 µM in assay [1], 58.7 ± 1.32 µM in assay [2], 47.1 ± 1.55 µM in assay [3] and 48.1 ± 2.26 µM in assay [4]. The apoptotic ratio in assay [5] (5 μM) was 10.89 ± 1.69%; in assay [5] (10 μM), 11.38 ± 1.12%; in assay [5] (25 μM), 17.76 ± 0.76%; in assay [5] (50 μM) it was 28.48 ± 1.20%; in assay [5] (100 μM) it was 27.10 ± 0.54%; in assay [6] (COLO 205, 5 μM) it was 5.33 ± 0.78%. For the same compound, the apoptotic ratio in assay [6] (COLO 205, 10 μM) was determined as 5.86 ± 0.32%; in assay [6] (COLO 205, 25 μM) it was 15.20 ± 1.02%; in assay [6] (COLO 205, 50 μM), 27.21 ± 5.51%; in assay [6] (COLO 205, 100 μM), 36.24 ± 0.76%; in assay [7] (HL-60, 5 μM) it was 6.41 ± 0.79%; in assay [7] (HL-60, 10 μM), 5.36 ± 0.61%. The apoptotic ratio in assay [7] (HL-60, 25 μM) was determined as 10.53 ± 3.34%; in assay [7] (HL-60, 50 μM) it was 28.60 ± 2.67%; in assay [7] (HL-60, 100 μM) it was 27.05 ± 0.54%; in assay [8] (HT-29, 5 μM), 4.24 ± 0.40%; in assay [8] (HT-29, 10 μM), 3.68 ± 0.47%; in assay [8] (HT-29, 25 μM), 3.93 ± 0.16%. Besides, the apoptotic ratio is listed as 5.16 ± 0.93% in assay [8] (HT-29, 50 μM) and 6.40 ± 0.28% in assay [8] (HT-29, 100 μM).

For the compound `C=C1C(=O)OC2CC(C)=C(C(C)CCCOC(C)=O)C(O)C12` (stereo not drawn) [Compound 6, 1-O-acetylbritannilactone], the 50% inhibitory concentration (IC50) is more than 100 µM in assay [1], more than 100 µM in assay [2], more than 100 µM in assay [3] and 96 ± 12.5 µM in assay [4]. The apoptotic ratio in assay [5] (5 μM) was 15.37 ± 6.22%; in assay [5] (10 μM), 17.28 ± 2.29%; in assay [5] (25 μM) it was 14.66 ± 1.38%; in assay [5] (50 μM) it was 14.84 ± .58%; in assay [5] (100 μM) it was 18.85 ± .68%; in assay [6] (COLO 205, 5 μM) it was 13.44 ± .25%. In addition, the apoptotic ratio is reported as 11.32 ± .421% in assay [6] (COLO 205, 10 μM); 16.48 ± 3.75% in assay [6] (COLO 205, 25 μM); 16.59 ± 0.71% in assay [6] (COLO 205, 50 μM); 35.79 ± 1.36% in assay [6] (COLO 205, 100 μM); 4.05 ± 0.31% in assay [7] (HL-60, 5 μM); 7.26 ± 2.15% in assay [7] (HL-60, 10 μM). In addition, the apoptotic ratio came out at 4.37 ± 0.57% in assay [7] (HL-60, 25 μM); 5.69 ± 0.60% in assay [7] (HL-60, 50 μM); 22.19 ± 4.14% in assay [7] (HL-60, 100 μM); 5.36 ± 1.80% in assay [8] (HT-29, 5 μM); 6.81 ± 2.14% in assay [8] (HT-29, 10 μM); 11.68 ± 3.02% in assay [8] (HT-29, 25 μM). The apoptotic ratio in assay [8] (HT-29, 50 μM) is on record as 9.26 ± 1.80%; in assay [8] (HT-29, 100 μM), 14.87 ± .90%.

With `C=C1C(=O)O[C@@H]2CC(C)=C([C@@H](C)CCCO)[C@H](O)[C@H]12` [Compound 5, britannilactone], the IC50 in assay [1] (Homo sapiens), in assay [2] (Homo sapiens), in assay [3] (Homo sapiens) and in assay [4] (Homo sapiens) was more than 100 µM in each case. Also, the apoptotic ratio is 7.93 ± 1.71% in assay [5] (5 μM); 10.37 ± 0.98% in assay [5] (10 μM); 10.16 ± .28% in assay [5] (25 μM); 8.97 ± 0.66% in assay [5] (50 μM); 10.37 ± 0.66% in assay [5] (100 μM); 11.90 ± 3.61% in assay [6] (COLO 205, 5 μM). Besides, the apoptotic ratio came out at 12.28 ± 5.24% in assay [6] (COLO 205, 10 μM); 12.79 ± 1.84% in assay [6] (COLO 205, 25 μM); 15.54 ± 2.14% in assay [6] (COLO 205, 50 μM); 28.31 ± 1.89% in assay [6] (COLO 205, 100 μM); 7.22 ± 1.54% in assay [7] (HL-60, 5 μM); 5.64 ± 2.00% in assay [7] (HL-60, 10 μM). For the same compound, the apoptotic ratio was 5.24 ± 0.67% in assay [7] (HL-60, 25 μM); 8.01 ± 1.34% in assay [7] (HL-60, 50 μM); 12.83 ± .06% in assay [7] (HL-60, 100 μM); 5.75 ± 1.77% in assay [8] (HT-29, 5 μM); 6.16 ± 1.23% in assay [8] (HT-29, 10 μM); 6.49 ± 1.07% in assay [8] (HT-29, 25 μM). Also, the apoptotic ratio in assay [8] (HT-29, 50 μM) was 6.59 ± 0.54%; in assay [8] (HT-29, 100 μM) it was 7.55 ± .08%.

Broadly, the IC50 is the concentration that gives 50% inhibition.

(Values after patent US20070244190A1, “Neobritannilactone B and acetyl neobritannilactone B” (priority 2006, published 2007).)
